{"source": "patent US20190365799A1", "about": "“THERAPIES FOR THE TREATMENT OF LIDOCAINE-INEFFECTIVE AND HYPOKALEMIC CONDITIONS” (AlkaliDx, Inc., priority 2016, published 2019)", "key": {"[1]": {"conditions": "oral potassium salt therapy, general statement; cited from earlier work"}, "[2]": {"tested_on": "patients with Lidocaine-Ineffective Conditions", "experiment": "Off-label treatment of patients with lidocaine-ineffective conditions with potassium or potassium-elevating drugs (clinical experience, patient reports)", "assay_type": "in vivo, human", "method": "The condition is a chronic one, and patients benefit from increasing the serum potassium both prophylactically and acutely. I have discovered that patients with such “Lidocaine-Ineffective Conditions” that are treated with the compositions and methods of this invention (e.g., potassium supplementation or potassium-elevating agents) derive a significant therapeutic benefit.\nBased on our research and discussions with us, patients with lidocaine-ineffective conditions have been treated with potassium and potassium-elevating drugs under the care of their personal physician in off-label use."}, "[3]": {"tested_on": "sodium channel in the sensory neurons", "conditions": "local anesthesia; Rozanski et al. 1988, Nakai et al. 2000; cited from earlier work"}, "[4]": {"conditions": "clinical experience with 15 patients, potassium supplementation"}}, "note": "“Also recorded” adds a separate entry of the source.", "data": [{"molecule": "[Cl-].[K+]", "note": "[potassium chloride]", "values": [{"measurement": "gastric tolerability", "setting": "[1]", "value": "usually results in stomach upset and gastric pain; also recorded: regularly causes gastric upset"}]}, {"molecule": "[K+]", "note": "[potassium]", "values": [{"measurement": "nervous system sensitivity", "setting": "[2]; [4]", "value": "restore the normal level of nervous system sensitivity"}, {"measurement": "symptoms of ADHD", "setting": "[2]; [4]", "value": "suppresses the symptoms of ADHD"}, {"measurement": "patient-reported effect of treatment", "setting": "[2]; off-label use under care of personal physician, anecdotal patient reports", "value": "nothing short of miraculous; also recorded: stopped fighting with their teacher"}, {"measurement": "persistence of effect over time", "setting": "[2]; off-label use, same dose, middle-aged person", "value": "continued to be as effective, at the same dose, after many months"}]}, {"molecule": "O=C([O-])[C@H](O)[C@@H](O)[C@H](O)[C@H](O)CO.[K+]", "note": "[potassium gluconate]", "values": [{"measurement": "gastric tolerability", "setting": "[1]", "value": "better tolerated"}]}, {"molecule": "CCN(CC)CC(=O)Nc1c(C)cccc1C", "note": "[lidocaine]", "values": [{"measurement": "share of the population for which lidocaine is ineffective", "setting": "[3]", "value": "2.7-11%"}]}]}
